Read-outs that look alike come from different tables or passages of the source. Numbered stars: 1 amine (or outer) side, 2 acyl side, 3 side chain; on linkers, the order of the positions; unused ones are H or OH. Square brackets hold non-standard residues; d marks the D form. Ends that are not written are not given here. Peptide text beside a SMILES is read from it. X1 = O=C(O)C[C@@H](C(=O)[*:2])N(C[C@H](O)[C@@H](O)[C@H](O)[C@H](O)CO)[*:1]; sY = N[C@@H](Cc1ccc(OS(=O)(=O)O)cc1)C(=O)O
Key:
[1] = Effects of mouse serum on in vitro degradation of peptides (HPLC); format: in vitro ADME
Experimental: Effects of mouse serum on degradation of CCK-8, Asp^1glucitol CCK-8 and pGlu-Gln CCK-8. Serum (20 μl) from fasted Swiss TO mice was incubated at 37° C. with 10 μg of either native CCK-8, Asp^1-glucitol CCK-8 or pGlu-Gln CCK-8 for periods up to 2 h in a reaction mixture (final vol. 500 μl ) containing 50 mmol/l triethanolamine/HCl buffer pH 7.8. The reaction was stopped by addition of 5 μl of TFA and the final volume adjusted to 1.0 ml using 0.1% (v/v) TFA/water. Samples were centrifuged (13,000 g, 5 min) and the supernatant applied to a C-18 Sep-Pak cartridge (Waters/Millipore) which was previously primed and washed with 0.1% (v/v) TFA/water. After washing with 20 ml 0.12% TFA/water, bound material was released by elution with 2 ml of 80% (v/v) acetonitrile/water and concentrated using a Speed-Vac concentrator (AES 1000, Savant). The volume was adjusted to 1.0 ml with 0.12% (v/v) TFA/water and applied to a (250×4.6 mm) Vydac C-18 column pre-equilibrated with 0.12% (v/v) TFA/water at a flow rate of 1.0 ml/min. The concentration of acetonitrile in the eluting solvent was raised from 0 to 31.5% over 15 min, from 31.5 to 38.5% over 30 min, and from 38.5 to 70% over 5 min, using linear gradients monitoring eluting peaks at 206 nm.

Swiss TO mice = assay: Voluntary food intake in fasted Swiss TO mice after i.p. injection; format: in vivo, mouse
Experimental: Effects of CCK-8, Asp^1glucitol CCK-8, pGlu-Gln CCK-8 and other peptides on food intake in mice. Studies to evaluate the relative potencies of control CCK-8, Asp^1-glucitol CCK-8, pGlu-Gln CCK-8 and other peptides involved in regulation of feeding were performed using male Swiss TO mice (n=16) aged 7-12 weeks from a colony originating from the Behavioral and Biomedical Research Unit, University of Ulster. The animals were housed individually in an air-conditioned room at 22±2° C. with 12 h light/12 h dark cycle. Drinking water was supplied ad libitum and standard mouse maintenance diet (Trouw Nutrition, Cheshire, UK) was provided for various times as indicated below. The mice were habituated to a daily feeding period of 3 h/day by progressively reducing the feeding period over a 3 week period. On days 1-6, food was supplied from 10.00 to 20.00 h, days 7-14 from 10.00 to 16.00 h and days 15-21 food was restricted to 10.00 to 13.00 h. Body weight, food and water intake were monitored daily.
(§1) Mice which had been previously habituated to feeding for 3 h/day were administered a single i.p. injection of saline (0.9% w/v NaCl, 10 ml/kg) in the fasted state (10.00 h) and food was immediately returned following injection. Two days after the saline injection, mice were randomly allocated into groups of 7-8 animals which were administered a single i.p. injection (from 1 to 100 nmol/kg) of either CCK-8, structurally modified CCK-8 analogues and/or other peptide hormones (including, bombesin, leptin and islet amyloid polypeptide (IAPP)). Food intake was carefully monitored at 30 min intervals up to 180 min post injection. In one series of experiments, the ability of CCK-8 and Asp^1-glucitol CCK-8 to inhibit feeding activity was studied in overnight fasted adult obese hyperglycaemic (ob/ob) mice. All animal studies were done in accordance with the Animals (Scientific Procedures) Act 1986.
Statistical analysis. Groups of data are presented as means±SE. Statistical evaluation was performed using analysis of variance, least significant difference multiple comparisons test and Student's unpaired t-test as appropriate. Differences were considered to be significant if P<0.05.

[2] = system: obese diabetic (ob/ob) mice; assay: Voluntary food intake in fasted obese diabetic (ob/ob) mice after i.p. injection; format: in vivo, mouse; conditions: 100 nmol/kg i.p.
Experimental: as §1
FIG. 4 Effect of CCK-8, Asp^1-glucitol CCK-8 or saline on voluntary food intake in obese diabetic (ob/ob) mice. Saline or test agents were administered by i.p. injection (100 nmol/kg) to fasted obese diabetic (ob/ob) mice at time 0 immediately before introduction of food. Cumulative food intake was monitored at 30, 60, 90, 120, 150, 180, 210, 240, 270 and 300 min post injection. Values are means±SE of 8 observations. […]

[3] = generally accepted; cited from earlier work

Which “% Total CCK-like material” value [1] does the source give for CSCC[C@H](NC(=O)[C@H](Cc1ccc(OS(=O)(=O)O)cc1)NC(=O)[C@H](CC(=O)O)NC[C@H](O)[C@@H](O)[C@H](O)[C@H](O)CO)C(=O)NCC(=O)N[C@@H](Cc1c[nH]c2ccccc12)C(=O)N[C@@H](CCSC)C(=O)N[C@@H](CC(=O)O)C(=O)N[C@@H](Cc1ccccc1)C(N)=O [Asp^1-glucitol CCK-8] (H-[X1][sY]MGWMDF-NH2) here?
Its value is 100%.

And the remaining at 1 h, 20 µg/ml ([1]; Swiss TO, mouse, serum, pH 7.8)?
Its remaining at 1 h, 20 µg/ml is 100%.

What about the remaining at 2 h, 20 µg/ml ([1]; Swiss TO, mouse, serum, pH 7.8) of the same molecule?
Its remaining at 2 h, 20 µg/ml is 100%.

And the “potency at reducing food intake compared to equivalent dose of CCK-8” value (Swiss TO mice; 100 nmol/kg i.p., FIG. 3)?
The value was “significantly more potent at reducing food intake at each time point (except at 30 min)”.

And the “sustained inhibition of cumulative food intake over 3 h compared to saline” value (Swiss TO mice; 100 nmol/kg i.p., FIG. 3, up to 180 min)?
The value was “sustained over the 3 h post-treatment feeding period”.

What about the “dose-response effects on food intake compared with CCK-8” value (Swiss TO mice; 1 to 100 nmol/kg i.p., FIGS. 5-7) of the same molecule?
The value was “more prolonged effects at lower doses”.

And the “potency compared with native CCK-8” value ([2]; FIG. 4)?
Its value is “considerable more potent”.

What about the “effect on voluntary food intake” value ([2]; FIG. 4, up to 300 min) of the same molecule?
The value was “significantly reduce voluntary food intake”.

What does the source list for CSCC[C@H](NC(=O)[C@H](Cc1ccc(OS(=O)(=O)O)cc1)NC(=O)[C@@H](N)CC(=O)O)C(=O)NCC(=O)N[C@@H](Cc1c[nH]c2ccccc12)C(=O)N[C@@H](CCSC)C(=O)N[C@@H](CC(=O)O)C(=O)N[C@@H](Cc1ccccc1)C(N)=O [CCK-8, Asp^1Tyr^2(SO3H)-Met^3Gly^4Trp^5Met^6Asp^7Phe^8amide]?
metabolised at 1 h, 20 µg/ml ([1]; Swiss TO, pH 7.8, after 1 h incubation with mouse serum, read-out: % converted to CCK-8 fragments (HPLC peak area)): 83.1%; metabolised at 2 h, 20 µg/ml ([1]; Swiss TO, pH 7.8, after 2 h incubation with mouse serum, read-out: % converted to CCK-8 fragments (HPLC peak area)): 100%; remaining at 1 h, 20 µg/ml ([1]; Swiss TO, pH 7.8, intact peptide peak, incubation time 1 h, mouse serum, 37° C., read-out: % Total CCK-like material): 16.9%; remaining at 2 h, 20 µg/ml ([1]; Swiss TO, pH 7.8, intact peptide peak, incubation time 2 h, mouse serum, 37° C., read-out: % Total CCK-like material): 0%; % Total CCK-like material ([1]; intact peptide peak, incubation time 0 h, mouse serum, 37° C.): 100%; % Total CCK-like material ([1]; peak CCK-8 fragment (B), incubation time 1 h): 39.3%; % Total CCK-like material ([1]; peak CCK-8 fragment (B), incubation time 2 h): 58.7%; % Total CCK-like material ([1]; peak CCK-8 fragment (C), incubation time 1 h): 43.8%; % Total CCK-like material ([1]; peak CCK-8 fragment (C), incubation time 2 h): 29.5%; % Total CCK-like material ([1]; peak CCK-8 fragment (D), incubation time 2 h): 11.8%; half-life [3]: 1 to 2 min

For “glycated tGLP-1: control peptide with a glucitol adduct on the amino-terminus (glucitol-HAEGTFTSDVSSYLEGQAAKEFIAWLVKGR; ends and bridges not checked; UniProt P01275 98-127, looked up)”, which “induction of satiety (control experiment)” value (Swiss TO mice; control experiments in this test system) is on record?
Its value is “insufficient on its own to induce satiety”.

From patent US7402663B2, “Modified peptide” (University of Ulster, priority 2001, dated 2008)
